Assay results reported in patent US9650674B2, “Nucleic acid probes and methods of using the same” (Board of Trustees University of Arkansas, priority 2012, dated 2017).
{Cy5.5} = Cy5.5 cyanine dye label

Key:
DNase I = target: T1, DNase I (Homo sapiens, UniProt P24855); test: Kinetic fluorescence of probes exposed to DNase I in vitro; type: biochemical
T1 construct: purchased Sigma (St. Louis, Mo.)
T1 sequence (P24855 23-282): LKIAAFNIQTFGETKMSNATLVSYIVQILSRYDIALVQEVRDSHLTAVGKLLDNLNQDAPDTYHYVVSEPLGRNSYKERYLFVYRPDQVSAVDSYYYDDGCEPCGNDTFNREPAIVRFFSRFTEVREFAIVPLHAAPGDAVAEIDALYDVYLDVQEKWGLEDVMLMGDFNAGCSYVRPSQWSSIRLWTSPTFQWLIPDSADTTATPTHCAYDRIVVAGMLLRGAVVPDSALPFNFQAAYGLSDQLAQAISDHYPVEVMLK
Procedure: It was hypothesized that exposure of the probes to endonucleases would lead to DNA cleavage and dissociation of protruded strand from the hairpin (FIG. 2A). To assess which of the proposed probes is the best to measure endonuclease activity, the probes (0.5 μM) were exposed with recombinant human DNase I (1 μg/ml) and the kinetic fluorescence curves were recorded. Twenty min into the reaction, AB259.1, AB259.3 and AB259.5 gained 1.75-, 2.6- and 1.62-fold fluorescence, respectively, compared to the baseline (FIG. 2B). At 20-25 min, AB259.1 and AB259.3 reached the plateaus. […] Therefore, AB259.3 was chosen for further experiments.
To detect specificity of the assay to DNase I that is a Ca/Mg-dependent endonuclease, AB259.3 probe was tested with 1 μg/ml DNase I in the presence of Ca++ and Mg++ (EAA buffer), in absence of the cations (deionized water), or in excess of EDTA (200 μM). […] Finally, it was tested whether AB259.3 probe will detect inhibition of DNase I activity by DNase I inhibitors such as ZnCl2 and Zn-diisopropyl salicylate (Zn-DIPS).
(§1) All cell-free experiments were performed using the Bio-Tek Synergy 5 fluorescent plate reader. Before experiments, optimal excitation and emission wavelengths were determined. For this, excitation and emission were scanned in the ranges of 600-680 nm and 690-705 nm, respectively. The optimal excitation/emission was determined to be 665/703 nm. All kinetic and endpoint measurements were done in a total volume of 100 μl at 37° C. Unless stated otherwise, DNA substrate was used in final concentration 0.5 μM reconstituted in endonuclease activity assay (EAA) buffer (2 mM CaCl2, 5 mM MgCl2, 10 mM Tris-HCl, pH 7.4) in a 96-well plate. After measurement of starting fluorescence, DNase I or tested material (diluted 1:20 urine or 1:100 serum) were added to the reconstituted probe, rapidly mixed and fluorescence was monitored for up to 60 min with 30-sec intervals. In some instances, EDTA (final concentration 200 μM) or NaOH (50 mM) was added to terminate the reaction. For the experiments that involved assessment of fluorescence after DNA denaturing, probes were tested in Cepheid real-time PCR system using Cy5 setting (Sunnyvale, Calif.).

WT mice = test: Histological distribution of probe in kidneys; type: in vivo, mouse; conditions: 50 nmol/kg intravenous
Procedure: It was assessed whether AB259.3 probe is specifically accumulated in any renal compartments or its accumulation in the kidney is simply due to the excretion with urine. For this, WT mice were administered intravenously with 50 nmol/kg of AB259.3 probe and kidneys were collected in 1 or 3 hours, frozen, cryosectioned and examined under fluorescent microscope in 628/40-692/40 spectrum. […] Morphologically, fluorescence was detected mainly in membranous parts of the epithelial cells, such as basolateral and, to lesser extent, at apical surface.

WT and DNase I KO mice = test: Cy5.5 fluorescence in organs isolated after intravenous probe injection (Xenogen-IVIS); type: in vivo, mouse; conditions: 50 nmol/kg intravenous, 1 or 3 hours after injection; FIG. 6
Procedure: In the next set of experiments, it was tested whether AB259.3 probe is suitable for in vivo measurement of DNase I and endonuclease activity in internal organs. For this, WT and DNase I KO mice were subjected to intravenous administration of AB259.3 probe (50 nmol/kg). The organs including brain, heart, lung, muscle, bone (femur), liver, pancreas, salivary gland, jejunum, spleen, kidney and testicles were collected in 1 or 3 hours after injection and measured for Cy5.5 fluorescence using a Xenogen-IVIS instrument. […] Kidneys, pancreas, salivary glands and lungs were among those that had the most prominent relative increase of Cy5.5 fluorescence in WT mice with markedly lower level of fluorescence in DNase I KO mice. Despite highest absolute fluorescence values in gut and liver, relative gain of fluorescence in these organs was quite modest due to the high background autofluorescence.
Kidney ischemia-reperfusion was performed as previously reported. […] The liposomes were prepared as described previously.

[1] = Alkaline denaturing of probes, kinetic fluorescence; type: physicochemical; conditions: alkaline buffer
Procedure: Lastly, the probes' integrity was tested by alkaline denaturing. The probes were treated with alkaline buffer and kinetic detection of the fluorescence was performed. […] AB259.1, AB259.3 and AB259.5 gained 40%, 81%, and 85% of fluorescence, respectively.
as §1

[2] = Heat denaturing and reannealing of hairpin probes (probe integrity); type: physicochemical; conditions: ROX internal reference; above background; FIG. 1C
Procedure: To ensure the integrity of the DNA probes, it was tested whether a heat denaturing of the hairpins would cause an increase in fluorescence, and if a reannealing would reverse it. To compensate for thermal change of fluorophore's emission, the ROX fluorophore was added to tested probes as an internal reference.
as §1

[3] = tested on: wild-type (WT) mouse kidney cryosections; test: Endonuclease activity ex vivo in kidney cryosections; conditions: 5 μM probe, EAA buffer, 37° C.
Procedure: Next it was examined whether AB259.3 probe can be used for measurement of endonuclease activity in tissue sections. Kidneys were used because they are known for high activity of DNase I (Ca/Mg-dependent endonuclease). Freshly prepared 10 μm thick cryosections of wild-type (WT) mouse kidney were exposed with 5 μM AB259.3 probe in presence of EAA buffer at 37° C. and time-lapse imaged for 10 min with 1-min intervals.
Specimens of kidney, liver, spleen and testis tissues were removed from euthanized mice, immersed in OCT medium, rapidly frozen by Fisher Freeze-it and kept on dry ice for no longer than 1 hour prior slicing. Tissue cryosections (8-μm thick) were prepared using the Microm HM 505E cryotome, placed to the Fisher Plus slides and immediately exposed with 0.5 μM AB259.3 probe diluted in EAA buffer. In control samples, applied probe contained EAA buffer supplemented with 200 μM EDTA. Images were taken in 628/40-692/40 spectrum every 30 sec for 10 min in 10 random XY coordinates. Three sections from each specimen were analyzed separately. Maximal velocity of increasing fluorescence was averaged for each section.

## [Cy5.5]AACACTCCGATGAGTGTAGAATGT[Cy5.5] (DNA, 5' {Cy5.5}, 3' {Cy5.5}, backbone not given here) [AB259.3, hairpin DNA probe with Cy5.5 at both ends, protruding strand +5]
DNase I; different concentrations of DNase I, FIG. 2C
  dependence of kinetic reaction on DNase I concentration: linear correlation between mean velocity (Vm) of the kinetic reaction and DNase I concentration
DNase I; probe 0.5 μM, DNase I 1 μg/ml, twenty min into the reaction, FIG. 2B
  gain of fluorescence compared to baseline: 2.6 fold
WT mice; 1 hour
  renal localisation of activated probe at 1 hour: cortical compartment, and mainly proximal tubules already contained significant amount of activated AB259.3 probe
WT mice; 3 hours, FIG. 8
  renal localisation of activated probe at 3 hours: started to appear in medullar compartment and distal tubules
WT and DNase I KO mice
  organ fluorescence after injection (in words): kidneys appeared to be the most visibly distinctive organ
[1]
  gain of fluorescence on alkaline denaturing: 81%
[2]
  gain of fluorescence on heat denaturing: 2.8 times
[3]
  time to plateau of fluorescence: 2 to 3 min
[3]; 10 min, FIGS. 5A and 5B
  increase of Cy5.5 fluorescence compared to starting point: 2.5 times
